Results on seven molecules are retold here after ChEMBL document CHEMBL4396885, “Thioether-based 2-aminobenzamide derivatives: Novel HDAC inhibitors with potent in vitro and in vivo antitumor activity” (Eur J Med Chem, 2019).

Holding throughout (type): functional
Experiment [1] relates to HeLa. Put plainly: Antiproliferative activity against human HeLa cells assessed as growth inhibition at 8 uM after 72 hrs by CCK-8 assay relative to control. As to conditions: read-out: GI.
Experiment [2] concerns A549. Put plainly: Antiproliferative activity against human A549 cells assessed as growth inhibition at 2 uM after 72 hrs by CCK-8 assay relative to control. As to conditions: A549, 72 h, read-out: GI.
The test system of experiment [3] is A549. Kind of experiment: Antiproliferative activity against human A549 cells assessed as growth inhibition at 8 uM after 72 hrs by CCK-8 assay relative to control. Particulars: A549, 72 h, read-out: GI.
Experiment [4] deals with HCT-116. Put plainly: Antiproliferative activity against human HCT116 cells assessed as growth inhibition at 8 uM after 72 hrs by CCK-8 assay relative to control. As to conditions: HCT-116, 72 h, read-out: GI.
For experiment [5], the system named is SMMC-7721. Put plainly: Antiproliferative activity against human SMMC7721 cells assessed as growth inhibition at 2 uM after 72 hrs by CCK-8 assay relative to control. As to conditions: SMMC-7721, 72 h, read-out: GI.
The test system of experiment [6] is A-375. Put plainly: Antiproliferative activity against human A375 cells assessed as growth inhibition at 8 uM after 72 hrs by CCK-8 assay relative to control. As to conditions: A-375, 72 h, read-out: GI.
Experiment [7] relates to HeLa. Put plainly: Antiproliferative activity against human HeLa cells assessed as growth inhibition at 2 uM after 72 hrs by CCK-8 assay relative to control. As to conditions: read-out: GI.
Experiment [8] has as its system A-375. Kind of experiment: Antiproliferative activity against human A375 cells assessed as growth inhibition at 2 uM after 72 hrs by CCK-8 assay relative to control. As to conditions: A-375, 72 h, read-out: GI.
For experiment [9], the system named is HCT-116. Put plainly: Antiproliferative activity against human HCT116 cells assessed as growth inhibition at 2 uM after 72 hrs by CCK-8 assay relative to control. As to conditions: HCT-116, 72 h, read-out: GI.
The subject of experiment [10] is SMMC-7721. Put plainly: Antiproliferative activity against human SMMC7721 cells assessed as growth inhibition at 8 uM after 72 hrs by CCK-8 assay relative to control. Particulars: SMMC-7721, 72 h, read-out: GI.

Regarding `Nc1ccccc1NC(=O)/C=C/c1ccc(CSc2ccc(Cl)cc2)cc1`, the inhibition of growth at 8 µM came to 17.3% with HeLa [1]; 59.6% with A549 [3]; 3.27% in the experiment on HCT-116 [4]; 48.2% in the experiment with A-375 [6]; 16.4% with SMMC-7721 [10]. Also, the inhibition of growth at 2 µM in the experiment with A549 [2] was determined as 55.2%; in the experiment with SMMC-7721 [5], 15.2%; in the experiment on HeLa [7], 1.94%; in the experiment with A-375 [8], 13.4%; in the experiment with HCT-116 [9], 5.62%.

On to `Nc1ccccc1NC(=O)/C=C/c1ccc(CSc2ccc(C(F)(F)F)cn2)cc1`, for which the inhibition of growth at 8 µM with HeLa [1] stood at 6.82%; with A549 [3] it was 56.5%; in the experiment on HCT-116 [4], 14.9%; in the experiment with A-375 [6], 3.96%; in the experiment on SMMC-7721 [10], 20.1%. The inhibition of growth at 2 µM in the experiment with A549 [2] came to 51.7%; in the experiment on SMMC-7721 [5], 12.1%; in the experiment on HeLa [7] it was 6.07%; with A-375 [8] it was 10.3%; in the experiment on HCT-116 [9], 4.42%.

Turning to `Nc1ccccc1NC(=O)/C=C/c1ccc(CSc2cccc(F)c2)cc1`, the inhibition of growth at 8 µM was 18.6% in the experiment with HeLa [1]; 56.6% in the experiment on A549 [3]; 3.22% in the experiment on HCT-116 [4]; 9.08% in the experiment on A-375 [6]; 8.25% with SMMC-7721 [10]. In addition, the inhibition of growth at 2 µM was determined as 50.7% in the experiment with A549 [2]; 8.56% with SMMC-7721 [5]; 2.25% in the experiment on HeLa [7]; 6.75% with A-375 [8]; 7.95% with HCT-116 [9].

As to `Nc1ccccc1NC(=O)c1ccc(CSc2ccc(C(F)(F)F)cn2)cc1`, the inhibition of growth at 8 µM with HeLa [1] was 16.5%; in the experiment with A549 [3], 38.9%; in the experiment on HCT-116 [4], 25.8%; in the experiment on A-375 [6] it was 5.34%; in the experiment with SMMC-7721 [10], 7.57%. Moreover, the inhibition of growth at 2 µM stood at 37.1% in the experiment with A549 [2]; 12.4% in the experiment on SMMC-7721 [5]; 11.5% in the experiment on HeLa [7]; 4.3% in the experiment with A-375 [8]; 1.2% in the experiment on HCT-116 [9].

Regarding `COc1ccc(SCc2ccc(/C=C/C(=O)Nc3ccccc3N)cc2)cc1OC`, the inhibition of growth at 8 µM was 21.9% with HeLa [1]; 80.6% in the experiment with A549 [3]; 49.5% in the experiment with HCT-116 [4]; 46.4% with A-375 [6]; 44.6% in the experiment on SMMC-7721 [10]. Moreover, the inhibition of growth at 2 µM with A549 [2] was found to be 65.5%; in the experiment with SMMC-7721 [5] it was 14.3%; in the experiment with HeLa [7] it was 10.1%; with A-375 [8], 46%; in the experiment with HCT-116 [9] it was 12.9%.

Turning to `Nc1ccccc1NC(=O)c1ccc(CSc2ccc(Br)cc2)cc1`, the inhibition of growth at 8 µM in the experiment with HeLa [1] came out at 38.2%; in the experiment on A549 [3], 45.6%; with HCT-116 [4] it was 67.7%; with A-375 [6], 6.17%; in the experiment on SMMC-7721 [10] it was 25.3%. Besides, the inhibition of growth at 2 µM turned out to be 33.2% with A549 [2]; 10% in the experiment on SMMC-7721 [5]; 18.8% in the experiment with HeLa [7]; 4.35% with A-375 [8]; 9.96% in the experiment with HCT-116 [9].

In the case of `Cc1cc(C)cc(SCc2ccc(/C=C/C(=O)Nc3ccccc3N)cc2)c1`, the inhibition of growth at 8 µM with HeLa [1] stood at 3.39%; in the experiment with A549 [3], 47.3%; in the experiment with HCT-116 [4] it was 4.2%; with A-375 [6], 2.49%; with SMMC-7721 [10], 7.13%. Besides, the inhibition of growth at 2 µM stood at 46.1% in the experiment on A549 [2]; 8.61% with SMMC-7721 [5]; 11.7% with HeLa [7]; 8.78% in the experiment with A-375 [8]; 7.98% in the experiment with HCT-116 [9].
